In ChEMBL document CHEMBL1158169, “Functionalized chalcones with basic functionalities have antibacterial activity against drug sensitive Staphylococcus aureus” (Eur J Med Chem, 2008):
Converted amounts (≈) assume the structure as drawn.

How the values were obtained:
Escherichia coli = experiment: Antibacterial activity against Escherichia coli ATCC 49696 after 20 hrs by microdilution assay; format: functional; conditions: ATCC 49696, 20 h
Staphylococcus aureus [1] = experiment: Antibacterial activity against methicillin-sensitive Staphylococcus aureus ATCC 13150 after 20 hrs by microdilution assay; format: functional
Staphylococcus aureus [2] = experiment: Antibacterial activity against methicillin-resistant Staphylococcus aureus; format: functional
[3] = Toxicity in sheep erythrocytes assessed as hemolysis at 100 uM after 90 mins; format: cell-based, Ovis aries, Erythrocyte; conditions: read-out: Activity
[4] = Toxicity in sheep erythrocytes assessed as hemolysis at 300 uM after 90 mins; format: cell-based, Ovis aries, Erythrocyte; conditions: read-out: Activity
[5] = Toxicity in sheep erythrocytes assessed as hemolysis at 25 uM after 90 mins; format: cell-based, Ovis aries, Erythrocyte; conditions: read-out: Activity
Staphylococcus aureus [6] = experiment: Antibacterial activity against Staphylococcus aureus; format: functional
[7] = Staphylococcus aureus, ATCC 13150, 20 h, read-out: MIC

Row | MIC (Escherichia coli) | MIC (Staphylococcus aureus [1]; [7]) | SMILES | other results
1 | > 100 µM | > 100 µM | O=C(/C=C/c1ccccc1Cl)c1cccc(N2CCCCC2)c1 | 
2 | > 100 µM | > 100 µM | CCN1CCC(c2cc(C(=O)/C=C/c3ccccc3Cl)c(OC)cc2OC)CC1 | 
3 |  |  | Cc1cc(C)cc(-c2ccc(N3CCNCC3)c(/C=C/C(=O)c3ccc(NCCN(C)C)cc3)c2)c1 | MIC (Staphylococcus aureus [2]): 2 µM (≈ 0.965 µg/mL)
4 | > 100 µM | > 100 µM | CCN1CCC(c2cc(C(=O)/C=C/c3ccccc3)c(OC)cc2OC)CC1 | 
5 | > 100 µM | 50 µM (≈ 20.8 µg/mL) | COc1cc(OC)c(C2CCN(C)CC2)c(O)c1C(=O)/C=C/c1ccccc1Cl | 
6 | > 100 µM | 6.25 µM (≈ 2.6 µg/mL) | COc1cc(OC)c(C2CCN(C)CC2)c(O)c1C(=O)/C=C/c1cccc(Cl)c1 | hemolysis at 1.5 h, 100 µM [3]: 6.5%
7 | > 100 µM | > 100 µM | COc1cc(OC)c(C2CCN(C)CC2)cc1C(=O)/C=C/c1cccnc1 | 
8 | > 100 µM | > 100 µM | COc1cc(O)c(C(=O)/C=C/c2ccccc2Cl)cc1C | 
9 |  |  | O=C(O)c1ccc(C(=O)/C=C/c2cc(Br)cc(Br)c2)cc1 | MIC (Staphylococcus aureus [6]): 2 µM (≈ 0.82 µg/mL)
10 | > 100 µM | > 100 µM | COc1ccc(/C=C/C(=O)c2cccc(N3CCCCC3)c2)c(OC)c1 | 
11 | > 100 µM | > 100 µM | O=C(/C=C/c1ccc(Cl)cc1)c1cccc(N2CCCCC2)c1 | 
12 | > 100 µM | > 100 µM | O=C(/C=C/c1ccccc1Cl)c1cccc(N2CCNCC2)c1 | 
13 | > 100 µM | > 100 µM | COc1ccc(C(=O)/C=C/c2ccccc2)c(OC)c1 | 
14 |  | 0.1 µM (≈ 0.0334 µg/mL) | CC1(C)S[C@@H]2[C@H](NC(=O)Cc3ccccc3)C(=O)N2[C@H]1C(=O)O [PENICILLIN G] | 
15 | > 100 µM | > 100 µM | CCN1CCC(c2cc(C(=O)/C=C/c3ccncc3)c(OC)cc2OC)CC1 | 
16 | > 100 µM | > 100 µM | COc1cc(OC)c(C2CCN(C)CC2)c(O)c1C(=O)/C=C/c1ccc(N2CCN(C)CC2)cc1 | 
17 | > 100 µM | > 100 µM | CCN1CCC(c2cc(C(=O)/C=C/c3ccc(N4CCN(C)CC4)cc3)c(OC)cc2OC)CC1 | 
18 | > 100 µM | 50 µM (≈ 20.6 µg/mL) | COc1ccc(/C=C/C(=O)c2c(OC)cc(OC)c(C3CCN(C)CC3)c2O)cc1 | 
19 | > 100 µM | > 100 µM | COc1ccc(C(=O)/C=C/c2ccccc2Cl)c(OC)c1 | 
20 | > 100 µM | > 100 µM | COc1ccc(C(=O)/C=C/c2ccc(N3CCN(C)CC3)cc2)c(OC)c1 | 
21 | > 100 µM | > 100 µM | COc1ccc(/C=C/C(=O)c2c(OC)cc(OC)c(C3CCN(C)CC3)c2O)c(OC)c1 | 
22 | > 100 µM | > 100 µM | O=C(/C=C/c1ccccc1)c1cccc(N2CCCCC2)c1 | 

Row | MIC (Escherichia coli) | MIC (Staphylococcus aureus [1]; [7]) | SMILES | other results
23 |  |  | COc1cc(OC)c(C2CCN(C)CC2)cc1C(=O)/C=C/c1ccccc1Cl (stereo in doubt; 7-140) | MIC (Staphylococcus aureus [1]): >100 µM
24 | > 100 µM | > 100 µM | COc1ccc(C(=O)/C=C/c2ccc(Cl)cc2)c(OC)c1 | 
25 | > 100 µM | > 100 µM | COc1cccc(/C=C/C(=O)c2c(OC)cc(OC)c(C3CCN(C)CC3)c2O)c1 | 
26 | > 100 µM | > 100 µM | COc1cc(OC)c(N2CCC(N3CCCCC3)CC2)cc1C(=O)/C=C/c1ccccc1F | 
27 | > 100 µM | 100 µM (≈ 35.2 µg/mL) | COc1ccc(/C=C/C(=O)c2cccc(N3CCNCC3)c2)c(OC)c1 | 
28 | > 100 µM | > 100 µM | COc1cc(OC)c(C2CCN(C)CC2)c(O)c1C(=O)/C=C/c1ccc(C#N)cc1 | 
29 | > 100 µM | 25 µM (≈ 10.4 µg/mL) | COc1cc(OC)c(C2CCN(C)CC2)c(O)c1C(=O)/C=C/c1ccc(Cl)cc1 | hemolysis at 1.5 h, 100 µM [3]: 5.5%
30 | > 100 µM | 25 µM (≈ 8.9 µg/mL) | CN1CCC(c2ccc(O)c(C(=O)/C=C/c3ccccc3Cl)c2)CC1 | hemolysis at 1.5 h, 100 µM [3]: 14.8%
31 | > 100 µM | > 100 µM | COc1cc(O)c(C(=O)/C=C/c2ccccc2OC)cc1C | 
32 | > 100 µM |  | COc1cc(OC)c(C2CCN(C)CC2)cc1C(=O)/C=C/c1ccccc1Cl (stereo in doubt; 1-5) | MIC (Staphylococcus aureus [1]): 25 µM (≈ 10 µg/mL)
33 | > 100 µM | > 100 µM | COc1ccc(C(=O)/C=C/c2ccccn2)c(OC)c1 | 
34 | > 100 µM | 50 µM (≈ 20.6 µg/mL) | COc1ccccc1/C=C/C(=O)c1c(OC)cc(OC)c(C2CCN(C)CC2)c1O | 
35 | > 100 µM | > 100 µM | COc1cc(O)c(C(=O)/C=C/c2ccccc2)cc1C | 
36 | > 100 µM | 50 µM (≈ 19.8 µg/mL) | COc1cc(OC)c(C2CCN(C)CC2)c(O)c1C(=O)/C=C/c1ccccc1C | 
37 | > 100 µM | > 100 µM | COc1cc(OC)c(N2CCC(N3CCCCC3)CC2)cc1C(=O)/C=C/c1ccccc1Cl | 
38 | > 100 µM | > 100 µM | COc1cc(O)c(C(=O)/C=C/c2ccc(F)cc2)cc1C1CCN(C)CC1 | 
39 | > 100 µM | 25 µM (≈ 8.17 µg/mL) | O=C(/C=C/c1ccc(Cl)cc1)c1cccc(N2CCNCC2)c1 | hemolysis at 1.5 h, 100 µM [3]: 11.6%
40 | > 100 µM | > 100 µM | COc1ccc(C2CCN(C)CC2)cc1C(=O)/C=C/c1ccccc1Cl | 
41 | > 100 µM | 50 µM (≈ 20.7 µg/mL) | CCN1CCC(c2cc(C(=O)/C=C/c3ccc(Cl)cc3)c(OC)cc2OC)CC1 | 
42 | > 100 µM | 25 µM (≈ 10.6 µg/mL) | COc1cc(OC)c(C2CCN(C)CC2)c(O)c1C(=O)/C=C/c1ccc(N(C)C)cc1 | hemolysis at 1.5 h, 100 µM [3]: 10.3%
43 | > 100 µM | > 100 µM | COc1ccc(C(=O)/C=C/c2ccncc2)c(OC)c1 [DILMEFONE] | 
44 | > 100 µM | > 100 µM | COc1cc(OC)c(C2CCN(C)CC2)cc1C(=O)/C=C/c1ccccc1 | 

Row | MIC (Escherichia coli) | MIC (Staphylococcus aureus [1]; [7]) | SMILES | other results
45 | > 100 µM | > 100 µM | COc1ccc(C(=O)/C=C/c2cccnc2)c(OC)c1 | 
46 | > 100 µM | > 100 µM | COc1cc(OC)c(C2CCN(C)CC2)cc1C(=O)/C=C/c1ccc(Cl)cc1 | 
47 | > 100 µM | 50 µM (≈ 21.7 µg/mL) | COc1cc(OC)c(C2CCN(C)CC2)cc1C(=O)/C=C/c1ccc(C(F)(F)F)cc1 | 
48 | > 100 µM | > 100 µM | COc1cc(OC)c(C2CCN(C)CC2)cc1C(=O)/C=C/c1ccncc1 | 
49 | > 100 µM | > 100 µM | COc1cc(OC)c(C2CCN(C)CC2)cc1C(=O)/C=C/c1ccc(N2CCN(C)CC2)cc1 | 
50 | > 100 µM | > 100 µM | COc1cc(OC)c(C2CCN(C)CC2)c(O)c1C(=O)/C=C/c1ccc(C(F)(F)F)cc1 | 
51 | > 100 µM | > 100 µM | COc1cc(OC)c(C2CCN(C)CC2)c(O)c1C(=O)/C=C/c1ccccc1F | 
52 | > 100 µM | > 100 µM | COc1ccc(/C=C/C(=O)c2cc(C3CCN(C)CC3)c(OC)cc2OC)cc1 | 
53 | > 100 µM | > 100 µM | COc1cc(OC)c(C2CCN(C)CC2)c(O)c1C(=O)/C=C/c1ccc(F)cc1 | 
54 | > 100 µM | > 100 µM | COc1cc(OC)c(C2CCN(C)CC2)cc1C(=O)/C=C/c1ccccc1C | 
55 | > 100 µM | 100 µM (≈ 33.5 µg/mL) | COc1ccc(C2CCN(C)CC2)cc1C(=O)/C=C/c1ccccc1 | 
56 | > 100 µM | > 100 µM | COc1cc(OC)c(C2CCN(C)CC2)cc1C(=O)/C=C/c1ccccc1F | 
57 | > 100 µM | > 100 µM | COc1cc(OC)c(C2CCN(C)CC2)c(O)c1C(=O)/C=C/c1ccccc1 | 
58 | > 100 µM | 6.25 µM (≈ 2.47 µg/mL) | COc1cc(OC)c(C2CCN(C)CC2)c(O)c1C(=O)/C=C/c1ccc(C)cc1 | hemolysis at 1.5 h, 100 µM [3]: 6.7%
59 | > 100 µM | > 100 µM | O=C(/C=C/c1ccccc1)c1cccc(N2CCNCC2)c1 | 
60 | > 100 µM | > 100 µM | COc1cc(OC)c(C2CCN(C)CC2)cc1C(=O)/C=C/c1ccc(C)cc1 | 
61 | > 100 µM | > 100 µM | COc1ccccc1/C=C/C(=O)c1cc(C2CCN(C)CC2)c(OC)cc1OC | 
62 |  |  | O=C(O)c1ccc(C(=O)/C=C/c2cc(C(F)(F)F)cc(C(F)(F)F)c2)cc1 | MIC (Staphylococcus aureus [6]): 2 µM (≈ 0.777 µg/mL)
63 | > 100 µM | > 100 µM | COc1ccc(C2CCN(C)CC2)cc1C(=O)/C=C/c1ccc(Cl)cc1 | 
64 | > 100 µM | > 100 µM | COc1cc(OC)c(C2CCN(C)CC2)cc1C(=O)/C=C/c1ccccn1 | 

Row | SMILES | MIC (Escherichia coli) | MIC (Staphylococcus aureus [1]; [7]) | other results
65 | C=CC(C)(C)c1cc(/C=C/C(=O)c2ccc(O)cc2)c(OC)cc1O [LICOAGROCHACONE A] | > 100 µM | 6.3 µM (≈ 2.13 µg/mL) | hemolysis at 1.5 h, 100 µM [3]: 19.9%; MIC (Staphylococcus aureus [2]): 18.4 µM (≈ 6.23 µg/mL); hemolysis at 1.5 h, 300 µM [4]: 47.9%; hemolysis at 1.5 h, 25 µM [5]: 11.6%
